Measured values published in PMC7618036, “An oral heme oxygenase inhibitor targets immunosuppressive perivascular macrophages in preclinical models of cancer” (Science translational medicine, 2025).

Tested on: CD8^+ T-cells in MMTV-PyMT tumors
Test: Flow cytometry of the TME of MMTV-PyMT tumors after 36 h treatment
Type: in vivo, mouse
Details: single-agent therapy
Method: At 36 h post treatment initiation of treatment mice were sacrificed and tumors were harvested and analyzed. (A) Schematic representing the dosing strategy. (B) The fold change of tumor growth over 36 h post initiation of treatment. (C-G) Tumors were enzyme-digested to release single cells which were analyzed for their live (7AAD^-) stromal cell composition using flow cytometry (n=5 tumors per group) (C) and CD8^+ T-cells (D). Gating strategy (left panel) and quantitation of CD8^+ T-cell subsets based on CD62L and CD44 expressions (right panel; TCM; T central memory cells, TEM; T effector memory cells, Teff; T effectors cells) (E), and the ability of the tumoral CD8^+ T-cells to secrete IFNγ post ex vivo exposure to PMA/ionomycin treatment (F). […] Scale bar is 100 µm and white arrows indicate infiltrating CD8^+ T-cells. […] Image in panel (A) was created using BioRender. Bar charts show the mean, error bars SD, and the dots show individual data points from individual tumors and mice. Gemc.; gemcitabine. * P<0.05, ** P<0.01, *** P<0.001.
MN-MCA1 sarcoma cells were orthotopically implanted into syngeneic C57Bl/6 mice for tumors. A total of 2.5 x 10^5 cells in 100 μL RPMI were injected subcutaneously into female mice. […] When tumors became palpable, volumes were measured every 2-4 days using digital caliper measurements of the long (L) and short (S) dimensions of the tumor. […]

## O=c1[nH]cc(F)c(=O)[nH]1 [5-FU, 5-fluorouracil]
  abundance of CD8^+ T-cells in the TME: increase in the abundance of CD8^+ T-cells
